Data reported in patent US20020143064A1, “Novel use of compounds of the chalcones class” (priority 2000, published 2002).

System: HDMEC cells (Human Dermal Microvascular Endothelial Cells)
Test: Detachment of endothelial cells in vitro (HDMEC detachment test)
Assay type: cell-based
Settings: Endothelial cell, 2 h, 1 μM compound, two hours treatment, plates precoated with fibronectin, vitronectin or gelatin, calcein fluorescence, relative to untreated control, mean of six samples, >=15% regarded as significant, read-out: Percentage of detachment of HDMEC cells induced by 1 μM of compound
Method: A test for the determination of the detachment of endothelial cells has been developed in order to select products with respect to their “in vitro” activity. Such test was employed in the present invention. By way of this test, the endothelial cells were inoculated in plates, the bottom of which were covered with at least one binding agent, for example, chosen from gelatin, fibronectin, and vitronectin. The inoculated endothelial cells were then cultured. The cultured endothelial cells were treated with a medium comprising the test compound. The cells were then labeled with a fluorescent substance. The detached cells were removed by washing; and the fluorescence of the remaining cells was counted with a fluorimeter.
This test measures the detachment of endothelial cells cultured on substrata based on at least one binding agent, for example, chosen from fibronectin, vitronectin, and gelatin. Generally, one day after the cells were seeded in plates, which comprised, for example, 96 wells, the culture medium was replaced by a medium, which comprised the test compound in the absence of serum. The same preparation was prepared six times at three different concentrations ([…]) and the control was prepared six times without addition of antivascular product. After the cells were treated for two hours with the test substance, the cells were labeled with calcein AM (1.6 μg/ml) in culture medium supplemented with 0.1% of BSA. The cells that detached were removed by washing with culture medium comprising 0.1% of bovine serum albumin. 100 μl of medium were then added to each well. The fluorescence of the remaining cells was counted with a fluorimeter. The data obtained is expressed with respect to the control (untreated cells).
The evaluation of the detachment of endothelial cells in vitro was determined in the following way: HDMEC cells (Human Dermal Microvascular Endothelial Cells, Promocell, c-122102) were cultured in an ECGM-MV medium which comprised 5% of foetal calf serum, growth factors (EGF 10 ng/ml, hydrocortisone 1 μg/ml, 0.4% growth supplement with heparin) and antibiotics (amphotericin 50 ng/ml, gentamicin 50 μg/ml). For the detachment test, the HDMECs were inoculated at 5000 cells in clear-bottomed 96-well plates (Costar) precoated with fibronectin (10 μg/ml) or vitronectin (1 μg/ml) or gelatin. Twenty four hours later, the culture medium was replaced with ECGM-MV 0.1% BSA medium comprising the products shown. The concentrations tested were 0.1, 0.3 and 1 μM for each product. After treating for two hours, the cells were labeled for one hour with calcein (1.6 μg/ml, Molecular Probes) in ECGM-MV 0.1% BSA medium. The detached cells were subsequently removed by washing with ECGM-MV 0.1% BSA medium; 100 μl of medium was added to each well. The fluorescence of the cells which remained attached to the substratum of the well were counted using a fluorimeter, Spectrafluor Plus (Tecan, excitation 485 nm and emission 535 nm).
A cell detachment effect of greater than or equal to 15% is regarded as significant.

Row | Compound | inhibition at 1 µM
1 | CC/C(=C\c1ccc(N(C)C)cc1)C(=O)c1ccc(OC)c(OC)c1OC [Example 10] | 15%
2 | COc1ccc(C(=O)/C(Br)=C/c2ccc(N(C)C)cc2)c(OC)c1OC [Example 13] | 23 to 34%
3 | COc1cc(C(=O)/C(C)=C/c2ccc(N(C)C)cc2)cc(OC)c1OC [Example 5] | 15%
4 | COc1ccc(OC)c(C(=O)/C(Cl)=C/c2ccc(N(C)C)cc2)c1 [Example 3] | 25 to 29%
5 | CCN(CC)c1ccc(/C=C(\C)C(=O)c2ccc(OC)c(OC)c2OC)cc1 [Example 6] | 35 to 41%
6 | CCN(CC)c1ccc(/C=C/C(=O)c2ccc(OC)c(OC)c2OC)cc1 [Example 9] | 19%
7 | CCCCNc1ccc(/C=C(\C)C(=O)c2cc(OC)c(OC)c(OC)c2)cc1 [Comparative Example 2, reference compound] | 6%
8 | COc1ccc(C(=O)/C(Cl)=C/c2ccc(N(C)C)cc2)c(OC)c1OC [Example 7] | 22 to 42%
9 | CCN(CC)c1ccc(/C=C(\C)C(=O)c2cc(OC)ccc2OC)cc1 [Example 2] | 20 to 23%
10 | COc1cc(C(=O)/C(Cl)=C/c2ccc(N(C)C)cc2)cc(OC)c1OC [Example 8] | 23 to 43%
11 | COc1ccc(C(=O)/C=C/c2ccc(N(C)C)cc2)c(OC)c1OC [Example 14] | 18 to 20%
12 | COc1ccc(OC)c(C(=O)/C=C/c2ccc(N(C)C)cc2)c1 [Example 4] | 18 to 19%
13 | CCN(CC)c1ccc(/C=C/C(=O)c2cc(OC)c(OC)c(OC)c2)cc1 [Example 11] | 20%
14 | COc1ccc(OC)c(C(=O)/C(C)=C/c2ccc(N(C)C)cc2)c1 [Example 1] | 23 to 49%
15 | COc1ccc(OC)c(C(=O)/C=C/c2ccc(NC(C)=O)cc2)c1 [Comparative Example 1, reference compound] | 2%
